Here are results for 50 molecules from patent US11098058B2, “Bicyclic ketone compounds and methods of use thereof” (Genentech, Inc., priority 2017, dated 2021).

In the experiment the target is human RIP1 kinase domain (2-375) (Homo sapiens (Human), UniProt Q13546). As to conditions: 50 nM enzyme, 50 μM ATP, 2 hours incubation.
The mark [1] stands for this setting: RIP1 kinase inhibition, tight-binding apparent Ki.
[2] abbreviates: tight-binding apparent inhibition constant (Ki app, Morrison equation).

Read-outs that look alike come from different tables or passages of the source.

Sequence of human RIP1 kinase domain (2-375) (Q13546 2-375): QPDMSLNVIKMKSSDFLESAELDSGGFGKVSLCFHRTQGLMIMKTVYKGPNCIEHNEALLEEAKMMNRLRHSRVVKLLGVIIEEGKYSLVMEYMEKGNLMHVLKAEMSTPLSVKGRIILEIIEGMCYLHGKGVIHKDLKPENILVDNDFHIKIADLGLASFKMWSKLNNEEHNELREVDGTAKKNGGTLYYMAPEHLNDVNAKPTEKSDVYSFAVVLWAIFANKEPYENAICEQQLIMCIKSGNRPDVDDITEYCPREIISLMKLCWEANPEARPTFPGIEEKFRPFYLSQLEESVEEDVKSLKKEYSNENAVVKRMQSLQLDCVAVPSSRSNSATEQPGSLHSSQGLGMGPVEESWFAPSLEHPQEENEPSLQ
Description: RIP1 Kinase Inhibition Assays (Biochemical Assay)
The ability of the receptor interacting protein kinase (RIPK1) to catalyze the hydrolysis of adenosine-5′-triphosphate (ATP) is monitored using the Transcreener ADP (adenosine-5′-diphosphate) assay (BellBrook Labs). Purified human RIP1 kinase domain (2-375) (50 nM) derived from a baculovirus-infected insect cell expression system is incubated with test compounds for 2 hours in 50 mM Hepes buffer (pH 7.5) containing 30 mM MgCl2, 1 mM dithiothreitol, 50 μM ATP, 0.002% Brij-35, and 0.5% dimethyl sulfoxide (DMSO). […] The tracer bound to the antibody is displaced by the ADP generated during the RIP1K reaction, which causes a decrease in fluorescence polarization that is measured by laser excitation at 633 nm with a FP microplate reader M1000. Fractional activity was plotted against test article concentration. Using Genedata Screener software (Genedata; Basel, Switzerland), the data were fit to the tight-binding apparent inhibition constant (Ki^app) Morrison equation [Williams, J. W. and Morrison, J. F. (1979) The kinetics of reversible tight-binding inhibition. […] The following equation was used to calculate fractional activity and Ki^app:
[formula] where [E]T and [I]T are the total concentrations of active enzyme and test article, respectively.

On to `O=C(c1nc2n(n1)[C@H](c1ccccc1)CCC2)C1CC1` (single isomer, unassigned) [Example 146], for which the Ki under setting [1] was 70 nM. Consider `Cn1cc(Cl)c([C@@H]2C[C@H](F)c3nc(C(=O)C4CC4)nn32)n1` [Example 154, ((5S,7S)-5-(4-chloro-1-methyl-1H-pyrazol-3-yl)-7-fluoro-6,7-dihydro-5H-pyrrolo[1,2-b][1,2,4]triazol-2-yl)(cyclopropyl)methanone], for which the Ki under setting [1] was 32 nM. Still for that read-out and setting: the same measure for `O=C(c1nc2n(n1)[C@H](c1cc(F)cc(F)c1F)C[C@@H]2F)C1CC1` (single isomer, unassigned) [Example 107]: 3.9 nM.

For the molecule `O=C(c1nc2n(n1)[C@H](c1ccccc1)C[C@@H]2F)C1CC1c1ccccn1` (stereo partly drawn) [Example 74, [2-(2-pyridyl)cyclopropyl]-[(5S,7S)-7-fluoro-5-phenyl-6,7-dihydro-5H-pyrrolo[1,2-b][1,2,4]triazol-2-yl]methanone], the Ki under setting [1] was determined as 18 nM.

As for `O=C(c1nc2n(n1)[C@H](c1ccccc1)C[C@H]2Cl)C1CC1` (single isomer, unassigned) [Example 117], the Ki under setting [1] was 560 nM.

For `O=C(c1nc2n(n1)[C@H](c1ccccc1)C[C@@H]2F)C1(C2CC2)CC1` (single isomer, unassigned) [Example 99], the Ki under setting [1] amounted to 2.9 nM. Consider `O=C(c1nc2n(n1)[C@H](c1ccccc1)C[C@@H]2F)[C@H]1C[C@@H]2CC[C@H]1O2` (single isomer, unassigned) [Example 141], for which the Ki under setting [1] worked out at 9 nM. Consider `CC(C)(C)C(=O)c1nc2n(n1)C(c1ccccc1)CC2F` (centres unmarked) [Example 44, 1-(7-fluoro-5-phenyl-6,7-dihydro-5H-pyrrolo[1,2-b][1,2,4]triazol-2-yl)-2,2-dimethyl-propan-1-one], for which the Ki under setting [2] was determined as 11.5 nM. Consider `O=C(c1nc2n(n1)[C@H](c1ccccc1)C[C@@H]2F)[C@@H]1C[C@H]2CC[C@@H]1O2` (single isomer, unassigned) [Example 140], for which, under setting [1], the Ki was determined as 150 nM. In the case of `N#CCC1(C(=O)c2nc3n(n2)[C@H](c2ccccc2)C[C@@H]3F)CC1` (single isomer, unassigned) [Example 83], the Ki under setting [1] turned out to be 3.7 nM. As to `CCC(=O)c1cc2n(n1)CC[C@H]2c1ccccc1` (single isomer, unassigned) [Example 23], the Ki under setting [2] turned out to be 2180 nM. Regarding `O=C(c1nc2n(n1)[C@H](c1ccccc1Cl)CC2)C1CC1` (single isomer, unassigned) [Example 77], the Ki under setting [1] is 14 nM.

Turning to `Cn1cc(Cl)c([C@@H]2C[C@@H](F)c3nc(C(=O)C4CC4)nn32)n1` [Example 155, ((5S,7R)-5-(4-chloro-1-methyl-1H-pyrazol-3-yl)-7-fluoro-6,7-dihydro-5H-pyrrolo[1,2-b][1,2,4]triazol-2-yl)(cyclopropyl)methanone], under setting [1], the Ki turned out to be 970 nM. On to `COc1cccc([C@@H]2C[C@H](F)c3nc(C(=O)C4CC4)nn32)c1` (single isomer, unassigned) [Example 156], for which, under setting [1], the Ki is 20 nM. On to `O=C(c1nc2n(n1)[C@H](c1ccccc1)C[C@H]2O)C1CC1` (single isomer, unassigned) [Example 88], for which the Ki under setting [1] was determined as 180 nM.

Regarding `O=C(c1nc2n(n1)[C@H](c1ccccc1)C[C@@H]2F)C1(c2ccccn2)CC1` (single isomer, unassigned) [Example 98], the Ki under setting [1] is 110 nM. With `N#Cc1ccccc1[C@@H]1C[C@H](F)c2nc(C(=O)C3CC3)nn21` (single isomer, unassigned) [Example 124], under setting [1], the Ki was found to be 61 nM. With `N#CC1(C(=O)c2nc3n(n2)[C@H](c2ccccc2)C[C@@H]3F)CC1` (single isomer, unassigned) [Example 95], the Ki under setting [1] amounted to 2.7 nM. Regarding `O=C(c1nc2n(n1)[C@H](c1c(F)cccc1F)C[C@@H]2F)C1CC1` (single isomer, unassigned) [Example 94], the Ki under setting [1] is 3.1 nM. The same measure, in the same setting: the result for `O=C(c1nc2n(n1)C(c1ccccc1)CC2)C1(Cn2cccn2)CC1` (centres unmarked) [Example 158, (5-phenyl-6,7-dihydro-5H-pyrrolo[1,2-b][1,2,4]triazol-2-yl)-[1-(pyrazol-1-ylmethyl)cyclopropyl]methanone] reads 650 nM. On the same count and under the same terms, the result for `O=C(c1nc2n(n1)[C@H](c1ccccc1)C[C@@H]2F)C1C2CC(F)(F)CC21` (single isomer, unassigned) [Example 80] reads 33 nM; that for `O=C(c1nc2n(n1)[C@H](c1ccccc1)C[C@@H]2F)C1CC2(C1)CC2(F)F` (stereo partly drawn) [Example 70, (2,2-difluorospiro[2.3]hexan-5-yl)-[(5S,7S)-7-fluoro-5-phenyl-6,7-dihydro-5H-pyrrolo[1,2-b][1,2,4]triazol-2-yl]methanone], 17 nM; that for `O=C(c1nc2n(n1)[C@H](c1cc(F)ccc1F)C[C@@H]2F)C1CC1` [Example 101, cyclopropyl-[(5S,7S)-5-(2,5-difluorophenyl)-7-fluoro-6,7-dihydro-5H-pyrrolo[1,2-b][1,2,4]triazol-2-yl]methanone], 3.6 nM. Still for that read-out and setting: the result for `O=C(c1nc2n(n1)[C@H](c1cccc(F)c1F)C[C@@H]2F)C1CC1` (single isomer, unassigned) [Example 106] reads 3.1 nM; that for `O=C(c1nc2n(n1)[C@@H](c1ccccc1)C[C@H]2Cl)C1CC1` (single isomer, unassigned) [Example 115], 790 nM; that for `O=C(c1cc2n(n1)[C@H](c1ccccc1)C[C@@H]2F)C1CC1` (single isomer, unassigned) [Example 108], 3.7 nM. With `O=C(c1nc2n(n1)[C@H](c1ccccc1F)C[C@@H]2F)C1CC1` (single isomer, unassigned) [Example 62], the Ki under setting [1] was found to be 4 nM.

In the case of `CC(C)C(=O)c1nc2n(n1)C(c1ccccc1)CC2F` (centres unmarked) [Example 45, 1-(7-fluoro-5-phenyl-6,7-dihydro-5H-pyrrolo[1,2-b][1,2,4]triazol-2-yl)-2-methyl-propan-1-one], under setting [2], the Ki amounted to 14.3 nM.

For `O=C(c1nc2n(n1)[C@H](c1ccccc1)C[C@@H]2F)C1CC(F)(F)C1` (single isomer, unassigned) [Example 73], under setting [1], the Ki worked out at 3.4 nM. `O=C(c1nc2n(n1)[C@H](c1ccccc1)C[C@@H]2F)C1CC2(CC2)C1` (single isomer, unassigned) [Example 76]: under setting [1], the Ki was 3.5 nM. Turning to `O=C(c1nc2n(n1)[C@H](c1ccc(F)cc1)C[C@@H]2F)C1CC1` (single isomer, unassigned) [Example 85], the Ki under setting [1] amounted to 9 nM. As for `O=C(c1nc2n(n1)[C@H](c1ncccc1F)C[C@H]2F)C1CC1` (single isomer, unassigned) [Example 151], under setting [1], the Ki turned out to be 230 nM. Turning to `CCC(=O)c1cc2n(n1)C(c1ccccc1)CC2` (centres unmarked) [Example 19, 1-(6-phenyl-5,6-dihydro-4H-pyrrolo[1,2-b]pyrazol-2-yl)propan-1-one], under setting [2], the Ki stood at 44.2 nM. `O=C(c1nc2n(n1)[C@H](c1ccccc1)C[C@@H]2F)C1CC2C(C1)C2(F)F` (single isomer, unassigned) [Example 82]: the Ki under setting [1] came out at 10 nM. On to `O=C(c1nc2n(n1)[C@H](c1ccccc1)C[C@@H]2F)C1CC12CC2` (single isomer, unassigned) [Example 96], for which the Ki under setting [1] amounted to 3.6 nM.

As to `C[C@H]1C[C@@H]1C(=O)c1nc2n(n1)[C@H](c1ccccc1)C[C@@H]2F` (single isomer, unassigned) [Example 89], the Ki under setting [1] came out at 15 nM. The same measure, in the same setting: the same measure for `O=C(c1nc2n(n1)[C@H](c1ccccc1)C[C@@H]2F)C1(CF)CC1` [Example 79, [1-(fluoromethyl)cyclopropyl]-[(5S,7S)-7-fluoro-5-phenyl-6,7-dihydro-5H-pyrrolo[1,2-b][1,2,4]triazol-2-yl]methanone]: 3.4 nM; for `Cc1oncc1C1CC(F)c2nc(C(=O)C3CC3)nn21` (centres unmarked) [Example 153, cyclopropyl(7-fluoro-5-(5-methylisoxazol-4-yl)-6,7-dihydro-5H-pyrrolo[1,2-b][1,2,4]triazol-2-yl)methanone]: 380 nM; for `O=C(c1nc2n(n1)[C@@H](c1ccccc1)C[C@H]2F)C1CC(F)(F)C1` (single isomer, unassigned) [Example 64]: 780 nM. As to `O=C(c1nc2n(n1)[C@H](c1ccccc1)C[C@@H]2F)C1CC1C(F)(F)F` (stereo partly drawn) [Example 81, [(5S,7S)-7-fluoro-5-phenyl-6,7-dihydro-5H-pyrrolo[1,2-b][1,2,4]triazol-2-yl]-[2-(trifluoromethyl)cyclopropyl]methanone], under setting [1], the Ki came out at 28 nM. On to `CC[C@@H]1C[C@H](F)c2nc(C(=O)C3CC3)nn21` (single isomer, unassigned) [Example 92], for which the Ki under setting [1] turned out to be 870 nM. Consider `O=C(c1nc2n(n1)[C@H](c1c(F)ccc(F)c1F)C[C@@H]2F)C1CC1` (single isomer, unassigned) [Example 102], for which the Ki under setting [1] was 3.6 nM. With `C[C@@H]1C[C@H]1C(=O)c1nc2n(n1)[C@H](c1ccccc1)C[C@@H]2F` (single isomer, unassigned) [Example 91], the Ki under setting [1] was 3.4 nM.

As for `O=C(c1nc2n(n1)[C@H](c1ncccc1F)C[C@@H]2F)C1CC1` (single isomer, unassigned) [Example 150], the Ki under setting [1] was found to be 10 nM.

As to `CO[C@H]1C[C@@H](c2ccccc2)n2nc(C(=O)C3CC3)nc21` (single isomer, unassigned) [Example 84], under setting [1], the Ki came out at 150 nM. Turning to `O=C(c1nc2n(n1)[C@H](c1ccccc1Cl)C[C@@H]2F)C1CC1` [Example 100, cyclopropyl-[(5S,7S)-5-(2-chlorophenyl)-7-fluoro-6,7-dihydro-5H-pyrrolo[1,2-b][1,2,4]triazol-2-yl]methanone], under setting [1], the Ki turned out to be 3.5 nM. With `CCC(=O)c1cn2c(n1)C(c1ccccc1)CC2` (centres unmarked) [Example 17, 1-(7-phenyl-6,7-dihydro-5H-pyrrolo[1,2-a]imidazol-2-yl)propan-1-one], the Ki under setting [2] was 940 nM.

Consider `CC1(C(=O)c2nc3n(n2)[C@@H](c2ccccc2)C[C@H]3F)COC1` (single isomer, unassigned) [Example 55], for which the Ki under setting [2] was greater than 10000 nM. In the case of `Cn1cc([C@@H]2C[C@H](F)c3nc(C(=O)C4CC4)nn32)cn1` (single isomer, unassigned) [Example 152], the Ki under setting [1] turned out to be 30 nM. Regarding `CCC[C@@H]1C[C@H](F)c2nc(C(=O)C3CC3)nn21` (single isomer, unassigned) [Example 93], the Ki under setting [1] turned out to be 41 nM.
